From patent US20080095741A1, “R-(+)-alpha-liponic acid for the prevention of diabetes” (MEDA Pharma GmbH & Co. KG, priority 2004, published 2008)
Like-named read-outs stand apart in the source and are kept apart here.

What was measured:
[1] = test system: biobreed rat; experiment: Preventive therapy in the biobreed rat model of diabetes (occurrence and progression); format: in vivo
Description: The experiments for the primary and secondary prevention of diabetes with α-lipoic acid or its derivatives were investigated using a suitable model system. The biobreed rat is a model of diabetes in which a primary loss of p cells also occurs on account of autoimmune processes. […] A secondary stress of the p cells occurs with the simultaneous development of hyperglycemia on account of the increasing glucose toxicity. Thus, pathogenic processes are reflected in this model that stand in the foreground of the progression of the disease and contribute to the progression in all forms of diabetes.
A preventive therapy with racemic α-lipoic acid as well as the two enantiomers took place in the biobreed rat.
This allows the conclusion that for the primary and secondary prevention of diabetes only the R-configured, dextrorotary enantiomer is suitable, as well as derivatives derived from it with intact dithiolane structure. This can be used just as suitably for the prevention of the secondary loss of function of β cells after transplantation.

[2] = test system: NOD mouse; details: Faust et al., 1994, cited from earlier work
[3] = test system: isolated pancreatic cells; details: pre-incubation; radical-generating system or activated macrophages; Burkart et al., 1993; cited from earlier work
[4] = test system: β cells; details: Kaneto et al., 1999; cited from earlier work
[5] = test system: Biobreed rats; experiment: Biobreed rat, development and progression of diabetes determined by weight loss as surrogate; format: in vivo; details: chronic ip, tromethamine salt
Description: Biobreed rats (male and female, 130-180 g) 5-19 weeks old were chronically treated (ip) with different doses of R-(+)-α-lipoic acid as tromethamine salt. The development and progression of diabetes was determined by weight loss as surrogate. […] Biobreed rats (male and female, 130-180 g) 5-19 weeks old were each chronically treated (ip) with 36.6 mg of different lipoic acid derivatives (as tromethamine salt). The development and progression of diabetes was determined by daily weight measuring as surrogate.

[6] = test system: Biobreed rats; experiment: Biobreed rat, development and progression of diabetes determined by daily measuring of the blood sugar as surrogate; format: in vivo; details: chronic ip, tromethamine salt, blood from the caudal vein
Description: Biobreed rats (male and female, 130-180 g) 5-19 weeks old were chronically treated (ip) with different doses of R-(+)-α-lipoic acid as tromethamine salt. The development and progression of diabetes was determined by daily measuring of the blood sugar (taken from the caudal vein) as surrogate. […] Biobreed rats (male and female, 130-180 g) 5-19 weeks old were each chronically treated with 36.6 mg of different lipoic acid derivatives (as tromethamine salt (ip)). with as tromethamine salt. The development and progression of diabetes was determined by daily measuring of the blood sugar (taken from the caudal vein) as surrogate.

[7] = test system: Biobreed rats; experiment: Biobreed rat, survival time and water consumption as further surrogates; format: in vivo; details: dose-dependent
Description: The survival time and the water consumption were determined as further surrogates for the occurrence and deterioration of diabetes.

O=C(O)CCCCC1CCSS1 (racemic) [racemic mixture]
occurrence of diabetes [1]: remained without effect | progression of manifest diabetes [1]: remained without effect | infiltration with immunocompetent cells into pancreatic tissue (surrogate of β cell destruction) ([2]; chronic administration, without cytotoxin): had no influence | protective action ([2]; with additional intoxication with cyclophosphamide): protective action

O=C(O)CCCC[C@@H](S)CCS (racemic) [racemic dihydrolipoic acid]
protection of pancreatic cells from lysis [3]: partially protected from lysis

CC(=O)N[C@@H](CS)C(=O)O [N-acetylcystein]
effect on the glucose toxicity of β cells [4]: a certain protective action

O=C(O)CCCCC1CCSS1 (stereo not drawn) [R-(+)-α-lipoic acid, 1,2-dithiolane-3-pentanoic acid]
occurrence of diabetes ([1]; listed as R-(+)-enantiomer): can be delayed | progression of manifest diabetes ([1]; listed as R-(+)-enantiomer): distinctly attenuated in a dose-dependent manner | progression of diabetes (weight loss as surrogate) ([5]; Example 1, different doses): delayed progression of diabetes in a dose-dependent manner | progression of diabetes (daily weight measuring as surrogate) ([5]; Example 2, 36.6 mg): had an effect on the progression of diabetes | progression of a rise in blood sugar ([6]; Example 3, different doses): delayed progression of a rise in blood sugar in a dose-dependent manner | progression of diabetes (daily blood sugar as surrogate) ([6]; Example 4, 36.6 mg): had an effect on the progression of diabetes | increase of the consumption of water [7]: positive effect | survival time [7]: positive effect

O=C(O)CCCC[C@H]1CCSS1 (single isomer, unassigned) [S-(−)- enantiomer]
occurrence of diabetes [1]: remained without effect | progression of manifest diabetes [1]: remained without effect

vitamin E
effect on the glucose toxicity of β cells [4]: no effect
